Experimental data: patent US20070275968A1, “Substituted Biphenyl Derivative” (priority 2004, published 2007)

Row | Structure (SMILES) | melting point [°C]
1 | Cc1cccc(-c2nc(C(C)C)[nH]c2-c2ccc(F)c(-c3ccc(NS(=O)(=O)C4CC4)cc3)c2)n1 [Example 111, N-{2′-Fluoro-5′-[2-isopropyl-4-(6-methylpyridin-2-yl)-1H-imidazol-5-yl]-1,1′-biphenyl-4-yl}cyclopropanesulfonamide] | 119 to 129
2 | Cc1cccc(-c2nc(C(C)C)[nH]c2-c2ccc(F)c(-c3ccco3)c2)n1 [Example 113, 2-{5-[4-Fluoro-3-(2-furyl)phenyl]-2-isopropyl-1H-imidazol-4-yl}-6-methylpyridine] | 78 to 90
3 | Cc1cccc(-c2[nH]c(C(C)C)nc2-c2ccc(F)c(-c3ccc(O)cc3)c2)n1 [Example 114, 2′-Fluoro-5′-[2-isopropyl-5-(6-methylpyridin-2-yl)-1H-imidazol-4-yl]-1,1′-biphenyl-4-ol] | 143 to 145
4 | Cc1cccc(-c2[nH]c(C(C)C)nc2-c2ccc(F)c(-c3cc[nH]c3)c2)n1 [Example 123, 2-{4-[4-Fluoro-3-(1H-pyrrol-3-yl)phenyl]-2-isopropyl-1H-imidazol-5-yl}-6-methylpyridine] | 106 to 110
5 | Cc1cccc(-c2[nH]c(C(C)C)nc2-c2ccc(F)c(-c3ccc(S(C)(=O)=O)cn3)c2)n1 [Example 124, 2-{2-Fluoro-5-[2-isopropyl-5-(6-methylpyridin-2-yl)-1H-imidazol-4-yl]phenyl}-5-(methylsulfonyl)pyridine] | 105 to 108
6 | Cc1cccc(-c2[nH]c(C(C)C)nc2-c2ccc(F)c(-c3ccc([S+](C)[O-])nc3)c2)n1 (centres unmarked) [Example 128, 5-{2-Fluoro-5-[2-isopropyl-5-(6-methylpyridin-2-yl)-1H-imidazol-4-yl]phenyl}-2-(methylsulfinyl)pyridine] | 100 to 102
7 | Cc1cccc(-c2[nH]c(C(C)C)nc2-c2ccc(F)c(-c3ccc(S(C)(=O)=O)nc3)c2)n1 [Example 129, 5-{2-Fluoro-5-[2-isopropyl-5-(6-methylpyridin-2-yl)-1H-imidazol-4-yl]phenyl}-2-(methylsulfonyl)pyridine] | 102 to 105
8 | Cc1cccc(-c2[nH]c(C(C)C)nc2-c2ccc(F)c(-c3nc[nH]n3)c2)n1 [Example 133, 2-{4-[4-Fluoro-3-(1H-1,2,4-triazol-3-yl)phenyl]-2-isopropyl-1H-imidazol-5-yl}-6-methylpyridine] | 184 to 186
9 | Cc1cccc(-c2[nH]c(C(C)C)nc2-c2ccc(F)c(-c3ncc[nH]3)c2)n1 [Example 134, 2-{4-[4-Fluoro-3-(1H-imidazol-2-yl)phenyl]-2-isopropyl-1H-imidazol-5-yl}-6-methylpyridine] | 201 to 205
10 | Cc1cccc(-c2[nH]c(C(C)C)nc2-c2ccc(F)c(-c3cc[nH]n3)c2)n1 [Example 135, 2-{4-[4-Fluoro-3-(1H-pyrazol-3-yl)phenyl]-2-isopropyl-1H-imidazol-5-yl}-6-methylpyridine] | 195 to 198
11 | Cc1cccc(-c2[nH]c(C(C)C)nc2-c2ccc(F)c(-c3c[nH]c(=O)[nH]3)c2)n1 [Example 140, 4-{2-Fluoro-5-[2-isopropyl-5-(6-methylpyridin-2-yl)-1H-imidazol-4-yl]phenyl}-1,3-dihydro-2H-imidazol-2-one] | 177 to 180
12 | Cc1cccc(-c2[nH]c(C(C)C)nc2-c2ccc(F)c(-c3c[nH]c(C)n3)c2)n1 [Example 141, 2-{4-[4-Fluoro-3-(2-methyl-1H-imidazol-4-yl)phenyl]-2-isopropyl-1H-imidazol-5-yl}-6-methylpyridine] | 230 to 234
13 | CCc1nc(-c2cc(-c3nc(C(C)C)[nH]c3-c3cccc(C)n3)ccc2F)c[nH]1 [Example 142, 2-{4-[3-(2-Ethyl-1H-imidazol-4-yl)-4-fluorophenyl]-2-isopropyl-1H-imidazol-5-yl}-6-methylpyridine] | 170 to 175
14 | Cc1cccc(-c2n[nH]cc2-c2ccc(F)c(-c3ccc(S(N)(=O)=O)s3)c2)n1 [Example 143, 5-{2-Fluoro-5-[3-(6-methylpyridin-2-yl)-1H-pyrazol-4-yl]phenyl}thiophene-2-sulfonamide] | 125
15 | Cc1cccc(-c2n[nH]cc2-c2ccc(F)c(-c3ccc(S(N)(=O)=O)c(F)c3)c2)n1 [Example 147, 2′,3-Difluoro-5′-[3-(6-methylpyridin-2-yl)-1H-pyrazol-4-yl]-1,1′-biphenyl-4-sulfonamide] | 119 to 121
16 | Cc1cccc(-c2n[nH]cc2-c2ccc(F)c(-c3ccc(O)c(S(N)(=O)=O)c3)c2)n1 [Example 148, 2′-Fluoro-4-hydroxy-5′-[3-(6-methylpyridin-2-yl)-1H-pyrazol-4-yl]-1,1′-biphenyl-3-sulfonamide] | 104 to 109
17 | Cc1cccc(-c2n[nH]cc2-c2ccc(F)c(-c3cc(F)c(S(N)(=O)=O)cc3F)c2)n1 [Example 149, 2,2′,5-Trifluoro-5′-[3-(6-methylpyridin-2-yl)-1H-pyrazol-4-yl]-1,1′-biphenyl-4-sulfonamide] | 122 to 125
18 | Cc1cccc(-c2n[nH]cc2-c2ccc(F)c(-c3ccc(S(N)(=O)=O)c(C(F)(F)F)c3)c2)n1 [Example 152, 2′-Fluoro-5′-[3-(6-methylpyridin-2-yl)-1H-pyrazol-4-yl]-3-(trifluoromethyl)-1,1′-biphenyl-4-sulfonamide] | 107 to 110

Row | Structure (SMILES) | melting point [°C]
19 | Cc1cccc(-c2n[nH]cc2-c2ccc(F)c(-c3ccc(C(C)(O)CF)cn3)c2)n1 (centres unmarked) [Example 163, 1-Fluoro-2-(6-{2-fluoro-5-[3-(6-methylpyridin-2-yl)-1H-pyrazol-4-yl]phenyl}pyridin-3-yl)propan-2-ol] | 174 to 176
20 | Cc1cccc(-c2n[nH]cc2-c2ccc(F)c(-c3ccc(C(C)(O)C(F)(F)F)cn3)c2)n1 (centres unmarked) [Example 164, 1,1,1-Trifluoro-2-(6-{2-fluoro-5-[3-(6-methylpyridin-2-yl)-1H-pyrazol-4-yl]phenyl}pyridin-3-yl)propan-2-ol] | 197 to 198
21 | Cc1cccc(-c2n[nH]cc2-c2ccc(F)c(-c3ccc(C(C)O)cn3)c2)n1 (centres unmarked) [Example 165, 1-(6-{2-Fluoro-5-[3-(6-methylpyridin-2-yl)-1H-pyrazol-4-yl]phenyl}pyridin-3-yl)ethanol] | 149 to 151
22 | Cc1cccc(-c2n[nH]cc2-c2ccc(F)c(-c3ccc(OCCO)cn3)c2)n1 [Example 166, 2-[(6-{2-Fluoro-5-[3-(6-methylpyridin-2-yl)-1H-pyrazol-4-yl]phenyl}pyridin-3-yl)oxy]ethanol] | 148 to 151
23 | Cc1cccc(-c2n[nH]cc2-c2ccc(F)c(-c3ccc(S(=O)(=O)C(F)(F)F)cc3)c2)n1 [Example 168, 2-(4-{6-Fluoro-4′-[(trifluoromethyl)sulfonyl]-1,1′-biphenyl-3-yl}-1H-pyrazol-3-yl)-6-methylpyridine] | 81 to 84
24 | Cc1cccc(-c2n[nH]cc2-c2ccc(F)c(-c3ccc(SCCO)cc3)c2)n1 [Example 169, 2-({2′-Fluoro-5′-[3-(6-methylpyridin-2-yl)-1H-pyrazol-4-yl]-1,1′-biphenyl-4-yl}thio)ethanol] | 150 to 152
25 | Cc1cccc(-c2n[nH]cc2-c2ccc(F)c(-c3ccc(S(=O)(=O)CCO)cc3)c2)n1 [Example 170, 2-({2′-Fluoro-5′-[3-(6-methylpyridin-2-yl)-1H-pyrazol-4-yl]-1,1′-biphenyl-4-yl}sulfonyl)ethanol] | 88 to 90
26 | Cc1cccc(-c2n[nH]cc2-c2ccc(F)c(-c3ccc(S(=O)(=O)C(F)F)cc3)c2)n1 [Example 171, 2-(4-{4′-[(Difluoromethyl)sulfonyl]-6-fluoro-1,1′-biphenyl-3-yl}-1H-pyrazol-3-yl)-6-methylpyridine] | 80 to 82
27 | COC(C)(C)c1ccc(-c2cc(-c3c[nH]nc3-c3cccc(C)n3)ccc2F)nc1 [Example 173, 2-{2-Fluoro-5-[3-(6-methylpyridin-2-yl)-1H-pyrazol-4-yl]phenyl}-5-(1-methoxy-1-methylethyl)pyridine] | 168 to 169
28 | CCC(O)(CC)c1ccc(-c2cc(-c3c[nH]nc3-c3cccc(C)n3)ccc2F)nc1 [Example 174, 3-(6-{2-Fluoro-5-[3-(6-methylpyridin-2-yl)-1H-pyrazol-4-yl]phenyl}pyridin-3-yl)pentan-3-ol] | 94 to 95
29 | Cc1cccc(-c2n[nH]cc2-c2ccc(F)c(-c3cnn(CCN4CCOCC4)c3)c2)n1 [Example 175, 4-[2-(4-{2-Fluoro-5-[3-(6-methylpyridin-2-yl)-1H-pyrazol-4-yl]phenyl}-1H-pyrazol-1-yl)ethyl]morpholine] | 124
30 | Cc1cccc(-c2n[nH]cc2-c2ccc(F)c(-c3csc(C(C)(C)O)n3)c2)n1 [Example 178, 2-(4-{2-Fluoro-5-[3-(6-methylpyridin-2-yl)-1H-pyrazol-4-yl]phenyl}-1,3-thiazol-2-yl)propan-2-ol] | 78 to 80
31 | Cc1cccc(-c2n[nH]cc2-c2ccc(F)c(-c3csc(CO)n3)c2)n1 [Example 182, (4-{2-Fluoro-5-[3-(6-methylpyridin-2-yl)-1H-pyrazol-4-yl]phenyl}-1,3-thiazol-2-yl)methanol] | 89 to 92
32 | Cc1cccc(-c2n[nH]cc2-c2ccc(F)c(-c3ncc(C(C)(C)O)cn3)c2)n1 [Example 183, 2-(2-{2-Fluoro-5-[3-(6-methylpyridin-2-yl)-1H-pyrazol-4-yl]phenyl}pyrimidin-5-yl)propan-2-ol] | 162
33 | Cc1cccc(-c2n[nH]cc2-c2ccc(F)c(-c3cn(CCN4CCOCC4)cn3)c2)n1 [Example 185, 4-[2-(4-{2-Fluoro-5-[3-(6-methylpyridin-2-yl)-1H-pyrazol-4-yl]phenyl}-1H-imidazol-1-yl)ethyl]morpholine] | 144 to 145
34 | Cc1cccc(-c2n[nH]cc2-c2ccc(F)c(-c3cn(CCN(C)C)cn3)c2)n1 [Example 186, 2-(4-{2-Fluoro-5-[3-(6-methylpyridin-2-yl)-1H-pyrazol-4-yl]phenyl}-1H-imidazol-1-yl)-N,N-dimethylethylamine] | 130 to 131
35 | Cc1cccc(-c2n[nH]cc2-c2ccc(F)c(-c3ccc(N4CCN(C)CC4)nc3)c2)n1 [Example 187, 1-(5-{2-Fluoro-5-[3-(6-methylpyridin-2-yl)-1H-pyrazol-4-yl]phenyl}pyridin-2-yl)-4-methylpiperazine] | 86
